Data from patent publication US20250064951A1, “DENDRITIC POLYELECTROLYTE ZWITTERIONS, JANUS-TYPE CONJUGATE COMPRISING SAME AND USES THEREOF” (ArtProBio Co., Ltd., priority 2023, published 2025).

How the values were obtained:
BALB/c nude mice = test: In vivo delivery of EGFP mRNA complex, eGFP imaging by IVIS; details: subcutaneous injection, 0.1 mg/kg
Description: The complex ((+6)2(−6)2_conjugate 2_complex) was subcutaneously injected into BALB/c nude mice at 0.1 mg/kg, and then the expressed eGFP (enhanced green fluorescenct protein) was imaged and quantified with IVIS (in vivo imaging system). As a control group, only EGFP mRNA was used instead of the complex.

HeLa cells = test: EGFP mRNA complex delivery and eGFP expression in HeLa cells by flow cytometry; assay type: cell-based; details: complex with EGFP mRNA
Description: HeLa cells were subcultured in DMEM supplemented with 10% FBS (fetal bovine serum), dispensed into each well at 1-3×10^4 cells/well, and cultured at 37° C. for 24 hours. The cells were treated with the (+6)2(−6)2_conjugate 2_complex or the (+6)2(−6)2_conjugate 3_complex at a concentration of […], respectively, and incubated at 37° C. for 4 hours. Afterwards, the cells were washed with Dulbecco's phosphate-buffered saline (DPBS), trypsinized, and resuspended in DPBS supplemented with 10% cell dissociation buffer (GIBCO) and 1% FBS. Then, the expressed eGFP (enhanced green fluorescent protein) was analyzed using a flow cytometer (BD LSR II SORT flow cytometer, BD Bioscience, USA).

`CCCCCCCCCCCCCCCCCCC[C@H](CCCCNC(=O)CCCCCCCCCCCCCCC)C(=O)NCCCCC(NC(=O)[C@H](CCCCNC(=O)[C@H](CCCCNC(=O)[C@H](CCC(=O)O)NC(=O)[C@H](CCC(=O)O)NC(=O)[C@H](CCC(=O)O)NC(=O)[C@H](CCC(=O)O)NC(=O)[C@H](CCC(=O)O)NC(=O)[C@H](CCC(=O)O)NC(C)=O)NC(=O)[C@H](CCCNC(=N)N)NC(=O)[C@H](CCCNC(=N)N)NC(=O)[C@H](CCCNC(=N)N)NC(=O)[C@H](CCCNC(=N)N)NC(=O)[C@H](CCCNC(=N)N)NC(=O)[C@H](CCCNC(=N)N)NC(C)=O)NC(=O)[C@H](CCCCNC(=O)[C@H](CCC(=O)O)NC(=O)[C@H](CCC(=O)O)NC(=O)[C@H](CCC(=O)O)NC(=O)[C@H](CCC(=O)O)NC(=O)[C@H](CCC(=O)O)NC(=O)[C@H](CCC(=O)O)NC(C)=O)NC(=O)[C@H](CCCNC(=N)N)NC(=O)[C@H](CCCNC(=N)N)NC(=O)[C@H](CCCNC(=N)N)NC(=O)[C@H](CCCNC(=N)N)NC(=O)[C@H](CCCNC(=N)N)NC(=O)[C@H](CCCNC(=N)N)NC(C)=O)C(N)=O` (stereo partly drawn) [Example 7] was tested, and the “in vivo mRNA delivery and eGFP protein expression (IVIS)” value (BALB/c nude mice) was “successfully delivered the mRNA in vivo”, the “delivery of EGFP mRNA into cells” value (HeLa cells; 16 M or 32 M, 4 hours) was “successfully delivered the mRNA into the nucleus and cytoplasm of the cells” and the “efficiency of eGFP protein expression from internalized EGFP mRNA” value (HeLa cells; flow cytometry) was 82.9%.
